Measured values taken from patent EP2607478A1, “Phenanthroline treated MSC” (Universiteit Twente, priority 2011, dated 2013).

Tested on: immortalized MSC cell line
Test: Screen for hypoxia mimics with hypoxia response element reporter in immortalized MSC
Assay type: cell-based
Conditions: clonally expanded immortalized MSC cell line
From the text: Because previous screening methods were based mostly on cancer cells and the results thereof can not necessarily be extrapolated to MSC, a novel screening method was developed, based on an immortalized MSC. Using this screening method, we quickly screened a large panel of potential compounds for effects on MSC. Such screening method is useful for screening a large panel of compound for their ability to modulate (i.e. increase or decrease) an angiogenic capacity of a MSC. […]
It is possible to use for instance an (immortalized) MSC and transfect it with a HRE-luciferase construct as described in Said et al (56) or with a 5HRE-ODD-luc construct described in Saha et al (57). Detection of transcription of the reporter gene is then easily achieved by measuring luciferase activity (luminescence) of the cells after contacting said MSC with the compound. […] As a consequence, reporter gene expression is increased, which can be detected, in case of luciferase, by measuring an increase in luminescence in these cells. Vice versa, decreased luminescence is indicative for a compound able to inhibit angiogenesis, which compound may subsequently be used for anti-angiogenic therapy, for instance in anti-tumor therapy. […]

c1cnc2c(c1)ccc1cccnc12 [PHE, 1, 10-phenanthroline]
ability to mimic hypoxia in MSCs: able to mimic hypoxia in MSCs
